Measurements reported in patent US12649737B2, “Compounds and uses thereof” (Foghorn Therapeutics Inc., priority 2020, dated 2026).
pIC50: −log10 of the molar value.

Tests used:
BRM = biological target: T1, BRM (Homo sapiens, UniProt P51531); assay: ATPase catalytic activity assay of BRM (ADP-Glo); format: biochemical; settings: 30 nM BRM, 400 μM ATP, 20 nM salmon sperm DNA, 1 hour at room temperature
T1 construct: made in house; host or cells: High Five insect cells
Procedure: (§1) Example 38. Assay for ATPase Catalytic Activity of BRM and BRG-1
(§2) The ADP-Glo™ kinase assay is performed in two steps once the reaction is complete.

BRG-1 = biological target: T2, BRG-1 (Homo sapiens, UniProt P51532); assay: ATPase catalytic activity assay of BRG-1 (ADP-Glo); format: biochemical; settings: 30 nM BRG-1, 400 μM ATP, 20 nM salmon sperm DNA, 1 hour at room temperature; read-out: BRG1 ATPase: IC50
T2 construct: made in house; host or cells: High Five insect cells
Procedure: as §1, §2

T2 sequence (P51532 whole entry): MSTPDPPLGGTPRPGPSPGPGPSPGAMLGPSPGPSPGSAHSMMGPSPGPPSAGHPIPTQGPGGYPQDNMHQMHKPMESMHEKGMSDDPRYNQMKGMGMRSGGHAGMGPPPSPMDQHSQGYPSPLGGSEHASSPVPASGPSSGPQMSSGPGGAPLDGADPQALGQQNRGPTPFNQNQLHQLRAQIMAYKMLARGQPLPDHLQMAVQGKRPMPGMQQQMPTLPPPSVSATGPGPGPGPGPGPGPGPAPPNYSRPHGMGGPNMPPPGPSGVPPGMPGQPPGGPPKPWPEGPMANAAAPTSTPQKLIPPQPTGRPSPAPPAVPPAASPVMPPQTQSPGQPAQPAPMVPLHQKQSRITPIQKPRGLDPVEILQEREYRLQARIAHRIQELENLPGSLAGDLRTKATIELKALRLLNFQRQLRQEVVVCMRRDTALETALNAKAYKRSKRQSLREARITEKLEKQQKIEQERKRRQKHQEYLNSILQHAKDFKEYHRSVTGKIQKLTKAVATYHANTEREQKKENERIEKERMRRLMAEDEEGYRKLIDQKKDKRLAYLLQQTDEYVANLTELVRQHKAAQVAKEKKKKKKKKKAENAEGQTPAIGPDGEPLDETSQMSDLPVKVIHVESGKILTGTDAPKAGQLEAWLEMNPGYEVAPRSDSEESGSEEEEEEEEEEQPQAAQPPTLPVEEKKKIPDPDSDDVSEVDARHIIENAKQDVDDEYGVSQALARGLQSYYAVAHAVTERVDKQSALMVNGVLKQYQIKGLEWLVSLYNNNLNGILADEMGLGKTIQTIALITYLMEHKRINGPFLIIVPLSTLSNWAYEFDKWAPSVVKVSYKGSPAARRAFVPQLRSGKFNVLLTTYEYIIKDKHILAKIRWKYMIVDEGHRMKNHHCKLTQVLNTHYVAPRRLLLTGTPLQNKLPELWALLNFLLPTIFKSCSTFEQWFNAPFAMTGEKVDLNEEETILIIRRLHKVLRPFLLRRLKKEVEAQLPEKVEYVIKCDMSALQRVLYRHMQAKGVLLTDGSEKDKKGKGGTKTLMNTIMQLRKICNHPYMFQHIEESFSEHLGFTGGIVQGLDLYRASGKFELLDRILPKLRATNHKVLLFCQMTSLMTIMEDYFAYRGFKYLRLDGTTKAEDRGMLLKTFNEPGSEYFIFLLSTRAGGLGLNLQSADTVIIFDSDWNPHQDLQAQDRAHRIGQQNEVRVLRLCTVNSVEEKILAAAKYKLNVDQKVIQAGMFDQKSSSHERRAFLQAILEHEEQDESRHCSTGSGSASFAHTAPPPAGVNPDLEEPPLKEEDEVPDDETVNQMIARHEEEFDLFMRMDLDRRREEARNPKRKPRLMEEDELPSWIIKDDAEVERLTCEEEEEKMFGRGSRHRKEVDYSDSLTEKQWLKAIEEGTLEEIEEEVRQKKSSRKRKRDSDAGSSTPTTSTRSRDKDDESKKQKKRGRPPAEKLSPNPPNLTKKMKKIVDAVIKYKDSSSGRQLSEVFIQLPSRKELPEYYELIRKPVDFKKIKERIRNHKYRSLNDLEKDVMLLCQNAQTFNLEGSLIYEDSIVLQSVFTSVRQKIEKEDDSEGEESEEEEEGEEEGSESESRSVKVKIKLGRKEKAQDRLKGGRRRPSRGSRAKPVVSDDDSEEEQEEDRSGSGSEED
T1 sequence (P51531 whole entry): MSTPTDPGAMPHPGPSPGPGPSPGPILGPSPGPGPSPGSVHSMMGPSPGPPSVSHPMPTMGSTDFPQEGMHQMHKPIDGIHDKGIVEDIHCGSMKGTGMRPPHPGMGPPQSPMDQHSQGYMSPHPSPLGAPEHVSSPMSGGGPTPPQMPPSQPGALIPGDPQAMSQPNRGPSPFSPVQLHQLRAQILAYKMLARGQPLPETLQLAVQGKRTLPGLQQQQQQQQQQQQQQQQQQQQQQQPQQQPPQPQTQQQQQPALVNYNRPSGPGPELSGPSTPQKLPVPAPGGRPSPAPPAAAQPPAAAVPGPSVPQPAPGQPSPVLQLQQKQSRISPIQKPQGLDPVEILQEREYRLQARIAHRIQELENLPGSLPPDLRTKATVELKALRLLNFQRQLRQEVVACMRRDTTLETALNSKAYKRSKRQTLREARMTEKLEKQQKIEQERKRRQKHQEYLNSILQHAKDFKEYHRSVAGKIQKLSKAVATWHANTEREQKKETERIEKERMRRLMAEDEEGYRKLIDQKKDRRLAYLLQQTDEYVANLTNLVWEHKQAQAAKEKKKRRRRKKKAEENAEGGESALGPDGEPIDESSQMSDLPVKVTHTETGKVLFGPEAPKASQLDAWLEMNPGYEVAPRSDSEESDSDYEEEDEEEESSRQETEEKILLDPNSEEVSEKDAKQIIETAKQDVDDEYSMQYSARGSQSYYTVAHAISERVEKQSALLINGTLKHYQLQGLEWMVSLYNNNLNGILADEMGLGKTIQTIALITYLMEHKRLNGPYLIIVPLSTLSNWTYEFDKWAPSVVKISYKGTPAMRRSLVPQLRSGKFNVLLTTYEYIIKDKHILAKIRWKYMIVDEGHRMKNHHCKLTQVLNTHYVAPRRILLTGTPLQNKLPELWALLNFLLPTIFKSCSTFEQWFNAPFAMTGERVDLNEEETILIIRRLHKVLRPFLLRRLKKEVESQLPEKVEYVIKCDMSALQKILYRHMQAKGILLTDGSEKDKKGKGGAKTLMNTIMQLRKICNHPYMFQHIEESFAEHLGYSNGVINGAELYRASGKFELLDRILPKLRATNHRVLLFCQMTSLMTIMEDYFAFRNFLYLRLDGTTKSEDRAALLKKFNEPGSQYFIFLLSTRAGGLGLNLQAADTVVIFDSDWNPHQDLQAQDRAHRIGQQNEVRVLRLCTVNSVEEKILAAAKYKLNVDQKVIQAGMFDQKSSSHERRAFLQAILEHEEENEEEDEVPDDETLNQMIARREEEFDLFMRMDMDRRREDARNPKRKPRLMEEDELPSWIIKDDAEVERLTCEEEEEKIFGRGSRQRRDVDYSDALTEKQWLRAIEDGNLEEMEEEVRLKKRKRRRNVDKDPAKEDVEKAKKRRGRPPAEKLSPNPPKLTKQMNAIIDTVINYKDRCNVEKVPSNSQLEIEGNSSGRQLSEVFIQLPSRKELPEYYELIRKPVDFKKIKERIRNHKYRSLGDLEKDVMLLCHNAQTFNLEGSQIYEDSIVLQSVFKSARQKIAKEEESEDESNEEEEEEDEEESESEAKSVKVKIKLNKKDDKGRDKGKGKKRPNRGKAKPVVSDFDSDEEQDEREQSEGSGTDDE

| pIC50 (BRM) | pIC50 (BRG-1) | SMILES |
| --- | --- | --- |
| 6.00 to 7.00 | 6.00 to 7.00 | CC(C)(C)n1ccc(C(=O)NCc2nc3ccc(-c4ccc(N5CCOCC5)nc4)cc3[nH]2)c1 [Compound 55] |
| 7.00 to 8.00 | 7.00 to 8.00 | CN(C)c1ncc(-c2ccc3nc(CNC(=O)c4ccn(C(C)(C)C)c4)[nH]c3c2)cn1 [Compound 56] |
| 7.00 to 8.00 | 7.00 to 8.00 | Cc1ccc2cc(-c3ccc4nc(CNC(=O)c5ccn(C(C)(C)C)c5)[nH]c4c3)ccc2n1 [Compound 57] |
| 7.00 to 8.00 | 6.00 to 7.00 | CC(C)(C)n1ccc(C(=O)NCc2nc3ccc(-c4ccc5c(c4)OCO5)cc3[nH]2)c1 [Compound 58] |
| 6.00 to 7.00 | 6.00 to 7.00 | COCCOc1ccc(-c2ccc3nc(CNC(=O)c4ccn(C(C)(C)C)c4)[nH]c3c2)cc1 [Compound 59] |
| 7.00 to 8.00 | 6.00 to 7.00 | COc1ncc(-c2ccc3nc(CNC(=O)c4ccn(C(C)(C)C)c4)[nH]c3c2)cc1Cl [Compound 60] |
| 6.00 to 7.00 | 6.00 to 7.00 | CS(=O)(=O)n1ccc(C(=O)NCc2cc3nc(-c4ccccc4)ccc3cn2)c1 [Compound 61, 1-(methylsulfonyl)-N-((2-phenyl-1,6-naphthyridin-7-yl)methyl)-1H-pyrrole-3-carboxamide] |
| 6.00 to 7.00 | 6.00 to 7.00 | COc1cccc(-c2ccc3cnc(CNC(=O)c4ccn(S(C)(=O)=O)c4)cc3n2)c1 [Compound 62] |
| 6.00 to 7.00 | 6.00 to 7.00 | CS(=O)(=O)n1ccc(C(=O)NCc2cc3nc(-c4ccc(N5CCC5)cc4)ccc3cn2)c1 [Compound 63] |
| 7.00 to 8.00 | 6.00 to 7.00 | CS(=O)(=O)n1ccc(C(=O)NCc2cc3nc(-c4cccc(N5CCC5)c4)ccc3cn2)c1 [Compound 64, N-[[2-[3-(azetidin-1-yl)phenyl]-1,6-naphthyridin-7-yl]methyl]-1-methylsulfonyl-pyrrole-3-carboxamide] |
| 6.00 to 7.00 | 6.00 to 7.00 | CS(=O)(=O)n1ccc(C(=O)NCc2cc3nc(-c4cccc(C(F)F)c4)ccc3cn2)c1 [Compound 65] |
| < 6.00 | < 6.00 | CS(=O)(=O)n1ccc(C(=O)NCc2cc3nc(-c4cccc(C#N)c4)ccc3cn2)c1 [Compound 66, N-((2-(3-cyanophenyl)-1,6-naphthyridin-7-yl)methyl)-1-(methylsulfonyl)-1H-pyrrole-3-carboxamide] |
| 6.00 to 7.00 | 6.00 to 7.00 | CS(=O)(=O)n1ccc(C(=O)NCc2cc3nc(-c4ccc5c(c4)CCO5)ccc3cn2)c1 [Compound 67] |
| 6.00 to 7.00 | 6.00 to 7.00 | CS(=O)(=O)n1ccc(C(=O)NCc2cc3nc(-c4ccc5c(c4)OCC5)ccc3cn2)c1 [Compound 68] |
| 7.00 to 8.00 | 6.00 to 7.00 | CN1CCOc2ccc(-c3ccc4cnc(CNC(=O)c5ccn(S(C)(=O)=O)c5)cc4n3)cc21 [Compound 69] |
| 6.00 to 7.00 | 6.00 to 7.00 | CS(=O)(=O)n1ccc(C(=O)NCc2cc3nc(-c4cccc(OC5CC5)c4)ccc3cn2)c1 [Compound 70] |
| 7.00 to 8.00 | 6.00 to 7.00 | Cn1cc(-c2cccc(-c3ccc4cnc(CNC(=O)c5ccn(S(C)(=O)=O)c5)cc4n3)c2)cn1 [Compound 71] |
| 6.00 to 7.00 | 6.00 to 7.00 | CN1CCc2cc(-c3ccc4cnc(CNC(=O)c5ccn(S(C)(=O)=O)c5)cc4n3)ccc21 [Compound 72] |
| 6.00 to 7.00 | 6.00 to 7.00 | CS(=O)(=O)n1ccc(C(=O)NCc2cc3nc(-c4ccccc4)sc3cn2)c1 [Compound 73, 1-methylsulfonyl-N-[(2-phenylthiazolo[5,4-c]pyridin-6-yl)methyl]pyrrole-3-carboxamide] |
| 7.00 to 8.00 | 6.00 to 7.00 | COc1ccccc1-c1ccc2cnc(CNC(=O)c3ccn(S(C)(=O)=O)c3)cc2n1 [Compound 75] |
| > 8.00 | 7.00 to 8.00 | C[C@@H]1CN(c2cccc(-c3ccc4cnc(CNC(=O)c5ccn(S(C)(=O)=O)c5)cc4n3)n2)C[C@H](C)O1 [Compound 76, N-((2-(6-(cis-2,6-dimethylmorpholino)pyridin-2-yl)-1,6-naphthyridin-7-yl)methyl)-1-(methylsulfonyl)-1H-pyrrole-3-carboxamide] |
| 7.00 to 8.00 | 7.00 to 8.00 | C[C@@H]1CN(c2cccc(-c3ccc4cnc(CNC(=O)c5ccn(C(C)(C)C)c5)cc4n3)n2)C[C@H](C)O1 [Compound 77] |
| 7.00 to 8.00 | 6.00 to 7.00 | C[C@@H]1CN(c2cccc(-c3ccc4cnc(CNC(=O)c5ccn(C(C)(C)C)n5)cc4n3)n2)C[C@H](C)O1 [Compound 78] |
| 7.00 to 8.00 | 7.00 to 8.00 | C[C@@H]1CN(c2cccc(-c3ccc4cnc(CNC(=O)c5ccn(C(C)(C)C#N)n5)cc4n3)n2)C[C@H](C)O1 [Compound 79] |
| 7.00 to 8.00 | 6.00 to 7.00 | CS(=O)(=O)n1ccc(C(=O)NCc2cc3nc(-c4cncc(C5CC5)n4)ccc3cn2)c1 [Compound 80, N-[[2-(6-cyclopropylpyrazin-2-yl)-1,6-naphthyridin-7-yl]methyl]-1-methylsulfonyl-pyrrole-3-carboxamide] |
| 7.00 to 8.00 | 6.00 to 7.00 | COC[C@H](NC(=O)c1ccn(S(C)(=O)=O)c1)c1cc2nc(-c3cccc(N4C[C@@H](C)O[C@@H](C)C4)n3)ccc2cn1 [Compound 82] |

| SMILES | pIC50 (BRM) | pIC50 (BRG-1) |
| --- | --- | --- |
| CC(C)(C)n1ccc(C(=O)NCc2nc3ccc(-c4ccc(-n5cccn5)cc4)cc3[nH]2)c1 [Compound 54] | 6.00 to 7.00 | 6.00 to 7.00 |
